Experimental data from patent US11357779B2 (G1 Therapeutics, Inc., priority 2018, dated 2022).

Test: Plasma concentration versus time of Compound I and metabolite Compound III in patients dosed QD or BID with Form B of Compound II plus fulvestrant
Type: in vivo, human
Text: Patients were enrolled into 1 of 2 parallel, independently operating, dose-escalation dosing cohorts with Form B of Compound II administered continuously either once daily (QD) or twice daily (BID) with food with fixed-dose fulvestrant (intramuscularly every 14 days for the first three injections and then every 28 days). Pre- or perimenopausal patients also received goserelin for the duration of study treatment. A […] agonist was started at least 28 days before the first dose of Form B, and those patients who were taking another LHRH agonist were switched to goserelin on Day 1. Patients were split into […] cohorts providing once a day (QD) dosing of 200 mg, 300 mg, 400 mg, 500 mg, or 650 mg of Form B, or twice a day (BID) dosing of 100 mg, 150 mg, or 200 mg of Form B. The second dose in BID cohorts was not administered in the evening until at least 12 hours after the initial morning dose of Form B. The dosing cohorts for Form B of Compound II are provided in Table 1.
Blood samples were collected at the following time points relative to the morning dose of Form B at Day 1 and at Day 29: pre-dose (0 hour) and 1, 2, 3, 4, 6, 8, 10, 12 (prior to the evening dose in the BID cohorts), and 24 (prior to the next day's morning dose) hours after dosing. A 5-minute time window was allowed for samples collected between the predose and 3 hours after Form B dosing. A 15-minute window was allowed for samples collected between 4 to 12 hours after Form B dosing. A 1-hour window was allowed for the sample collected 24 hours after Form B dosing. Blood samples for Compound I PK trough levels were collected pre-dose at Day 8, Day 15, and Day 22 prior to the morning administration of Compound I. Plasma concentrations of Compound I and its metabolite, Compound III, were measured using validated methods.
Analysis of plasma concentration versus time data for calculation of standard pharmacokinetic (PK) parameters following oral administration was conducted using Phoenix WinNonlin version 6.3 using actual blood sampling times.

[1] = Cohort 3, 400 mg QD of Form B, Day 8
[2] = Cohort 3, 400 mg QD of Form B, Day 15
[3] = Cohort 3, 400 mg QD of Form B, Day 22
[4] = Cohort 4, 500 mg QD of Form B, Day 8
[5] = Cohort 4, 500 mg QD of Form B, Day 15
[6] = Cohort 4, 500 mg QD of Form B, Day 22
[7] = Cohort 7, 150 mg BID of Form B, Day 29, 0.0 h
[8] = Cohort 7, 150 mg BID of Form B, Day 29, 1.0 h
[9] = Cohort 7, 150 mg BID of Form B, Day 29, 2.0 h
[10] = Cohort 7, 150 mg BID of Form B, Day 29, 3.0 h
[11] = Cohort 7, 150 mg BID of Form B, Day 29, 4.0 h
[12] = Cohort 7, 150 mg BID of Form B, Day 29, 6.0 h
[13] = Cohort 7, 150 mg BID of Form B, Day 29, 8.0 h
[14] = Cohort 7, 150 mg BID of Form B, Day 29, 10.0 h
[15] = Cohort 7, 150 mg BID of Form B, Day 29, 12.0 h

CC(C)N1CCN(c2ccc(Nc3ncc4cc5n(c4n3)C3(CCCCC3)CNC5=O)nc2)CC1 [Compound I, 2′-((5-(4-isopropylpiperazin-1-yl)pyridin-2-yl)amino)-7′,8′-dihydro-6′H-spiro[cyclohexane-1,9′-pyrazino[1′,2′:1,5]pyrrolo[2,3-d]pyrimidin]-6′-one]
Trough Compound I Concentration (200 mg QD of Form B, Day 8, Mean): 4.93 ng/mL | Trough Compound I Concentration (200 mg QD of Form B, Day 8, Median): 4.22 ng/mL | Trough Compound I Concentration (200 mg QD of Form B, Day 15, Mean): 5.56 ng/mL | Trough Compound I Concentration (200 mg QD of Form B, Day 15, Median): 4.59 ng/mL | Trough Compound I Concentration (200 mg QD of Form B, Day 22, Mean): 6.24 ng/mL | Trough Compound I Concentration (200 mg QD of Form B, Day 22, Median): 5.32 ng/mL | Trough Compound I Concentration (300 mg QD of Form B, Day 8, Mean): 14.0 ng/mL | Trough Compound I Concentration (300 mg QD of Form B, Day 8, Median): 17.3 ng/mL | Trough Compound I Concentration (300 mg QD of Form B, Day 15, Mean): 16.7 ng/mL | Trough Compound I Concentration (300 mg QD of Form B, Day 15, Median): 19.9 ng/mL | Trough Compound I Concentration (300 mg QD of Form B, Day 22, Mean): 16.4 ng/mL | Trough Compound I Concentration (300 mg QD of Form B, Day 22, Median): 10.9 ng/mL | Trough Compound I Concentration, Max [1]: 6.85 ng/mL | Trough Compound I Concentration, Mean [1]: 5.63 ng/mL | Trough Compound I Concentration, Median [1]: 6.16 ng/mL | Trough Compound I Concentration, Min [1]: 3.87 ng/mL | Trough Compound I Concentration, Max [2]: 10.2 ng/mL | Trough Compound I Concentration, Mean [2]: 6.66 ng/mL | Trough Compound I Concentration, Median [2]: 5.33 ng/mL | Trough Compound I Concentration, Min [2]: 4.46 ng/mL | Trough Compound I Concentration, Max [3]: 11.7 ng/mL | Trough Compound I Concentration, Mean [3]: 9.34 ng/mL | Trough Compound I Concentration, Median [3]: 10.4 ng/mL | Trough Compound I Concentration, Min [3]: 5.91 ng/mL | Trough Compound I Concentration, Mean [4]: 17.1 ng/mL | Trough Compound I Concentration, Min [4]: 10.6 ng/mL | Trough Compound I Concentration, Mean [5]: 23.8 ng/mL | Trough Compound I Concentration, Min [5]: 14.5 ng/mL | Trough Compound I Concentration, Mean [6]: 19.8 ng/mL | Trough Compound I Concentration, Min [6]: 14.4 ng/mL | Trough Compound I Concentration, Mean (Cohort 7, 150 mg BID of Form B, Day 15): 24.8 ng/mL | Trough Compound I Concentration, Mean (Cohort 7, 150 mg BID of Form B, Day 22): 20.6 ng/mL | Compound I Concentration, Mean [7]: 26.2 ng/mL | Compound I Concentration, Min [7]: 9.03 ng/mL | Compound I Concentration, Max [8]: 57.0 ng/mL | Compound I Concentration, Mean [8]: 37.6 ng/mL | Compound I Concentration, Min [8]: 27.0 ng/mL | Compound I Concentration, Max [9]: 64.9 ng/mL | Compound I Concentration, Mean [9]: 41.3 ng/mL | Compound I Concentration, Min [9]: 24.6 ng/mL | Compound I Concentration, Max [10]: 76.6 ng/mL | Compound I Concentration, Mean [10]: 46.0 ng/mL | Compound I Concentration, Min [10]: 25.7 ng/mL | Compound I Concentration, Max [11]: 83.2 ng/mL | Compound I Concentration, Mean [11]: 50.2 ng/mL | Compound I Concentration, Min [11]: 30.5 ng/mL | Compound I Concentration, Max [12]: 67.2 ng/mL | Compound I Concentration, Mean [12]: 38.0 ng/mL | Compound I Concentration, Min [12]: 20.3 ng/mL | Compound I Concentration, Max [13]: 67.4 ng/mL | Compound I Concentration, Mean [13]: 36.7 ng/mL | Compound I Concentration, Min [13]: 15.8 ng/mL | Compound I Concentration, Max [14]: 59.7 ng/mL | Compound I Concentration, Mean [14]: 32.2 ng/mL | Compound I Concentration, Min [14]: 13.0 ng/mL | Compound I Concentration, Max [15]: 58.1 ng/mL | Compound I Concentration, Mean [15]: 28.5 ng/mL | Compound I Concentration, Min [15]: 10.2 ng/mL
